The source of these data is patent US5618793A, “Nikkomycin analogs” (Schering Corporation, priority 1995, dated 1997).

Assay [1] deals with Sensitive Strains: Candida albicans C141, Candida sp. C2, Candida sp. C109, Candida parapsilosis C67, Candida tropicalis C112, Torulopsis glabrata C95, Candida …. Format: cell-based, Candida spp., Sacchararomyces. Particulars: geometric mean of MICs against sensitive strains, YNB pH 5.4, 37° C., 48 hours, lowest concentration preventing visible growth. As for the experimental part: (§1) In vitro anti-fungal activity was determined in microtiter minimum inhibitory concentration (MIC) tests using Yeast Nitrogen Broth (YNB without amino acids, Difco., Detroit, Mich.) at pH 5.4. Yeasts were grown overnight in Sabouraud Dextrose Broth at 28° C. with shaking, and concentrations adjusted in sterile saline using a spectrophoptometer at 540 mμ. Compounds were dissolved in various vehicles and diluted in media to twice the final concentrations. The Cetus Pro/Pette system was used to serially dilute 50 μl in round bottom 96 well plates (Falcon, Lincoln Park, N.J.). The turbidometrically adjusted yeast suspensions were diluted 1:3,000 in YNB. These dilutions when added to the wells, produced a final inoculum of 3×10^3 /ml. Plates were incubated at 37° C. for 48 hours. MICs were defined as the lowest concentrations of compound that prevented visible growth. MICs were taken against the following organisms and expressed in the table above as the geometric mean.
(§2) MIC-R and MIC-S mean respectively MICs taken against resistant and sensitive strains.
Candida parapsilosis C67
Candida tropicalis C112
Torulopsis glabrata C95
Candida pseudotropicalis C967
Candida guillermondii C137
Sacchararomyces mutant C147

Assay [2] concerns Resistant Strains: Candida albicans C79, C6, C8, C31, C54, C70, C104, C138, C140; Candida stellatoidea C45. Description: microtiter minimum inhibitory concentration (MIC) test, resistant strains (MIC-R). The note with it: geometric mean of MICs against resistant strains, YNB pH 5.4, 37° C., 48 hours, lowest concentration preventing visible growth. Format: cell-based. As for the experimental part:
as §1, §2
Candida stellatoidea C45

Values after ≈ are worked out from the molar mass of the structure shown. Like-named read-outs stand apart in the source and are kept apart here.

In the case of `CCCCCCCCCCCCNC(=O)C(NC(=O)C(N)C(C)Cn1ccnc1)C1OC(n2ccc(=O)[nH]c2=O)C(O)C1O` (mixture of isomers) [Compound 11], in assay [1], the MIC-S amounted to 85 µg/mL. This compound gave an MIC-R in assay [2] of 316 µg/mL.
In assay [1], `CCCCCCCCCCCCNC(=O)C(NC(=O)C(N)Cc1csc2ccc(O)cc12)C1OC(n2ccc(=O)[nH]c2=O)C(O)C1O` (single isomer, unassigned) [Compound 21] yielded an MIC-S of 158 µg/mL (≈ 234 µM). The compound further came in with an MIC-R in assay [2] of 208 µg/mL (≈ 309 µM).
As to `CCCCCCCCCCCCNC(=O)C(NC(=O)C(N)Cc1csc2ccc(O)cc12)C1OC(n2ccc(=O)[nH]c2=O)C(O)C1O` (single isomer, unassigned) [Compound 22], the MIC-S in assay [1] amounted to 158 µg/mL (≈ 234 µM). The MIC-R in assay [2] (listed as drawing 80) is more than 256 µg/mL.
In assay [1], `CCCCNC(=O)[C@@H](NC(=O)[C@@H](N)Cc1c[nH]c2ccc(O)cc12)[C@H]1O[C@@H](n2ccc(=O)[nH]c2=O)[C@H](O)[C@@H]1O` [Compound 1] had an MIC-S of more than 4096 µg/mL. In assay [2], this compound returned an MIC-R of more than 4096 µg/mL.
`CCCCCCCCCCCCNC(=O)C(NC(=O)C(N)Cc1c[nH]c2ccc(O)cc12)C1OC(n2ccc(=O)[nH]c2=O)C(O)C1O` (centres unmarked) [Compound 3, 6'-Dodecylamido-5-N-(5-hydroxytryptophanyl)UPOC]: the MIC-S in assay [1] was determined as 478 µg/mL (≈ 728 µM). The MIC-R in assay [2] was determined as 23 µg/mL (≈ 35 µM).
In the case of `CCCCCCCCCCCCCCCCCCNC(=O)C(NC(=O)C(N)Cc1c[nH]c2ccc(O)cc12)C1OC(n2ccc(=O)[nH]c2=O)C(O)C1O` (centres unmarked) [Compound 4], the MIC-S in assay [1] is more than 2048 µg/mL. In assay [2], this compound came in with an MIC-R of more than 2048 µg/mL.
As for `CCCCCCCCCCCCCCNC(=O)C(NC(=O)C(N)Cc1c[nH]c2ccc(O)cc12)C1OC(n2ccc(=O)[nH]c2=O)C(O)C1O` (centres unmarked) [Compound 9], in assay [1], the MIC-S turned out to be 147 µg/mL (≈ 215 µM). In assay [2], this compound yielded an MIC-R of more than 256 µg/mL.
For `CCCCCCCCCCCCNC(=O)C(NC(=O)C(N)C(C)Cc1ccc(O)cn1)C1OC(n2ccc(=O)[nH]c2=O)C(O)C1O` (centres unmarked) [Compound 10], in that order: 478 µg/mL (≈ 739 µM) and 147 µg/mL (≈ 227 µM).
For `CCCCCCCCCCCCNC(=O)C(NC(=O)[C@@H](N)C(C)Cc1ccc(OC)cc1)C1OC(n2ccc(=O)[nH]c2=O)C(O)C1O` (some centres unmarked) [Compound 12, 6'-Dodecylamido-5-N-(2-S-amino-3-R,S-methyl-4-p-methoxyphenyl-butyryl) UPOC], in that order: 208 µg/mL (≈ 315 µM) and 28 µg/mL (≈ 42.4 µM).
For `CCCCCCCCCCNC(=O)C(NC(=O)C(N)Cc1c[nH]c2ccc(O)cc12)C1OC(n2ccc(=O)[nH]c2=O)C(O)C1O` (centres unmarked) [Compound 13], in that order: 388 µg/mL (≈ 617 µM) and 181 µg/mL (≈ 288 µM).
`CCCCCCCCCCCCN(OCc1ccccc1)C(=O)C(NC(=O)C(N)Cc1c[nH]c2ccc(O)cc12)C1OC(n2ccc(=O)[nH]c2=O)C(O)C1O` (centres unmarked) [Compound 14]: the MIC-S in assay [1] was 119 µg/mL (≈ 156 µM). The same compound displayed an MIC-R in assay [2] of 28 µg/mL (≈ 36.7 µM).
In assay [1], `CC(C)=CCCC(C)=CCCC(C)=CCNC(=O)C(NC(=O)C(N)Cc1c[nH]c2ccc(O)cc12)C1OC(n2ccc(=O)[nH]c2=O)C(O)C1O` (centres unmarked) [Compound 15] showed an MIC-S of 362 µg/mL (≈ 523 µM). Besides, the MIC-R in assay [2] is 143 µg/mL (≈ 206 µM).
`CCCCCCCCCCCCNC(=O)C(NC(=O)C(N)CCc1ccc2ccccc2n1)C1OC(n2ccc(=O)[nH]c2=O)C(O)C1O` (centres unmarked) [Compound 16] registered an MIC-S in assay [1] (listed as drawing 72) of 239 µg/mL (≈ 358 µM). The compound further yielded an MIC-R in assay [2] (listed as drawing 72) of 294 µg/mL (≈ 441 µM).
On to `CCCCCCCCCCCCNC(=O)C(NC(=O)C(N)CCc1ccc2ccccc2n1)C1OC(n2ccc(=O)[nH]c2=O)C(O)C1O` (centres unmarked) [Compound 17], for which the MIC-S in assay [1] (listed as drawing 73) turned out to be 158 µg/mL (≈ 237 µM). This compound also yielded an MIC-R in assay [2] (listed as drawing 73) of 21 µg/mL (≈ 31.5 µM).
Regarding `CCCCCCCCCCCCN(O)C(=O)C(NC(=O)C(N)Cc1c[nH]c2ccc(O)cc12)C1OC(n2ccc(=O)[nH]c2=O)C(O)C1O` (centres unmarked) [Compound 18], the MIC-S in assay [1] came to 239 µg/mL (≈ 355 µM). The same compound yielded an MIC-R in assay [2] of 39 µg/mL (≈ 58 µM).
In turn, `NC(Cc1c[nH]c2ccc(O)cc12)C(=O)NC(C(=O)NCc1ccccc1)C1OC(n2ccc(=O)[nH]c2=O)C(O)C1O` (centres unmarked) [Compound 20] displayed an MIC-S in assay [1] of more than 256 µg/mL. The MIC-R in assay [2] is more than 256 µg/mL.
Regarding `CCCCCCCCCCCCNC(=O)C(NC(=O)C(N)Cc1ccc(OC)cc1)C1OC(n2ccc(=O)[nH]c2=O)C(O)C1O` (centres unmarked) [Compound 23], in assay [1], the MIC-S is 56 µg/mL (≈ 88.6 µM). The same compound returned an MIC-R in assay [2] of 9.8 µg/mL (≈ 15.5 µM).
The like results for `CCCCCCCCCCCCNC(=O)C(NC(=O)C(N)c1ccccc1)C1OC(n2ccc(=O)[nH]c2=O)C(O)C1O` (centres unmarked) [Compound 24] were, in that order, 194 µg/mL (≈ 330 µM) and 18 µg/mL (≈ 30.6 µM).
With `CCCCCCCCCCCCNC(=O)C(NC(=O)C(N)Cc1cn(C)c2ccccc12)C1OC(n2ccc(=O)[nH]c2=O)C(O)C1O` (centres unmarked) [Compound 25], the MIC-S in assay [1] was more than 256 µg/mL. The compound further registered an MIC-R in assay [2] of more than 256 µg/mL.
